Tests used:
[1] = test system: caspase 3 in HCT116 cells; assay: Caspase 3 activity by flow cytometry; assay type: cell-based
Text: FIG. 3D depicts the detection of activation the protease caspase 3 potential in HCT116 cells by 3-deazaneplanocin (DZNep, right hand side), which occurs during apoptosis. Cells were trypsinised and washed with PBS and fixed in 70% ethanol and processed for propidium iodide staining and FACS analysis. For the caspase 3 activity assay and mitochondrial membrane potential detection, cells were stained with anti-active caspase 3 and JC-1, respectively, according to the manufacturer's instructions (BD Bioscience).

[2] = test system: caspase 9, and poly(ADP-ribose) polymerase (PARP); assay: Western blot of caspase and PARP cleavage; assay type: cell-based; settings: 3-deazaneplanocin-treated cells (MCF-7, HCT116; 5 μM, 48 and 72 h)
Experimental: FIG. 3E depicts a Western blot analysis of the activation of caspases. MCF-7 and HCT16 cells were treated with 5 μM 3-deazaneplanocin (“DZNep”) for 48 and 72 h before analysis of whole-cell extracts. Activation of caspases and poly(ADP-ribose) polymerase (“PARP”) was detected after 3-deazaneplanocin treatment. β-Actin (“Actin”) was used as a loading control.
Cell pellets were first lysed in RadioImmuno Precipitation Assay (RIPA) buffer, consisting of an aqueous solution of 25 mM Tris-HCl pH 7.6, 150 mM NaCl, 1% Nonidet-P 40 (NP-40), 1% sodium deoxycholate and 0.1% sodium dodecylsulfate (SDS), before further sonicated using a tissue homogeniser to release all the proteins. Equal amounts of protein were separated on SDS-polyacrylamide gels and transferred to polyvinylidene difluoride (PVDF) membranes. The blots were probed with antibodies against: EED (07-368), SUZ12 (07-379), SUV39H1 (07-550), BMI1 (05-637), tri-methylated H3-K27 (07-449), tri-methylated H3-K9 (07-442) and Acetyl-Histone H3 (06-599), and were purchased from Upstate. EZH2 (AC22) and Histone H3 (3H1) were from Cell Signaling. Antibodies against DNA methyl-transferases DNMT1 and DNMT3B were purchased from Alexis Biochemicals. […]

MCF-7 cells [3] = assay: Cell death / apoptosis by PI staining and flow cytometry; assay type: cell-based, human; settings: 5 μM; for cell death: PI staining and flow cytometry, cell line not named in the sentence (FIG. 3A)
Experimental: FIG. 3A depicts the detection of cell death of a variety of cancer cells upon exposure to 3-deazaneplanocin (DZNep) compared to untreated controls cells (DMSO=dimethyl sulfoxide). Breast cancer MCF-7 and MB-468 cells, colorectal HCT116, RKO and SW480 cells were treated with 5 μm 3-deazaneplanocin for 48 and 72 h, and cell death was detected by means of propodium iodide (PI) staining and flow cytometry analysis. Shown is the average of three independent experiments.
Cell lines used in these examples were purchased from the American Type Culture Collection (Manassas, Va.). Cells were maintained in DMEM supplemented with 10% fetal bovine serum with glutamine, penicillin, and streptomycin. For drug treatment, cells were seeded the day before the drug treatment. Cells were treated with 5 μM 3-Deazaneplanocin A or 2 μM 5-aza-2′-deoxycytidine (5-AzaC; Sigma) for 72 hours and trichostatin A (TSA; Sigma) at 100 nM for 24 hours. For co-treatment of cells with 5-AzaC and TSA, 5-Aza was added for 48 hours and followed by TSA for 24 hours.
(§1) Cells were trypsinised and washed with PBS and fixed in 70% ethanol and processed for propidium iodide staining and FACS analysis. For the caspase 3 activity assay and mitochondrial membrane potential detection, cells were stained with anti-active caspase 3 and JC-1, respectively, according to the manufacturer's instructions (BD Bioscience).
It was observed that 3-deazaneplanocin at 5 μM could induce 25% cell death at 48 hours and 45% of cell death at 72 hours, as determined by propodium iodide (PI) staining and flow cytometry analysis (FIG. 3A).
(§2) To determine whether 3-deazaneplanocin preferentially induces apoptosis in cancer cells, the apoptosis induction between MCF-7 cells and the non-cancerous breast epithelial MCF10A cells was compared for various periods of time. […] In addition, normal primary colon epithelial CC33D cells, like MCF10A cells, were also resistant to 3-deazaneplanocin treatment compared to colorectal cancer HCT116 cell, as evaluated by microscopy examination (FIGS. 3G & 3H).

SK-BR-3 cells = assay: Apoptotic response time course by FACS analysis; assay type: cell-based, human; settings: SK-BR-3, 5 μM, time course to 120 hours
Experimental: (§3) FIG. 6A depicts an analysis of the breast cancer cell lines MCF-7, MB-468, SK-BR-3, MB-231, T47D and BT549 for an apoptotic effect of 5 μM 3-deazaneplanocin over a time frame of 120 hours. Cell death was measured by FACS analysis. Data presented are the average of three independent experiments.
as §1
(§4) To extend the observation seen in MCF-7 cells, additional breast cancer cell lines were screened, including MB-468, SK-BR-3, MB-231, T47D and BT549. […] To identify the PRC2 target genes associated with the cellular sensitivity to 3-deazaneplanocin, the array analysis was performed in these breast cancer cell lines before and after 3-deazaneplanocin treatment and the expression of the 47 identified PRC2 targets profiled. It was reasoned that some the PRC2 target genes might be differentially expressed between the sensitive and resistant cell lines, which might confer the distinct sensitivity to 3-deazaneplanocin. […] Both the real time and conventional RT-PCR analysis of the 4 gene set confirmed the array data (FIGS. 6D & 6E). […]

T47D cells = assay: Apoptotic response time course by FACS analysis; assay type: cell-based, human; settings: 5 μM, time course to 120 hours
Experimental: as §3, §1, §4

MCF10A cells = assay: Apoptosis by FACS analysis in non-cancerous cells; assay type: cell-based; settings: 5 μM
Experimental: Cells were treated with 5 μM 3-deazaneplanocin (DZNep, dark bars) for indicated times.
as §3, §1, §2
To extend the observation seen in MCF-7 cells, additional breast cancer cell lines were screened, including MB-468, SK-BR-3, MB-231, T47D and BT549. […]

MCF-7 cells [4] = assay: Microarray gene expression analysis (Illumina BeadChip) in MCF-7 cells; assay type: cell-based, human
Experimental: The Smartpool siRNA duplexes of selected PRC2 targets and the non-targeting control were purchased from Dharmacon (Lafayett, Colo.). […] Cells were transfected with 50 nM final concentration of siRNA duplexes using Lipofectamine 2000 (Invitrogen) following the manufacturer's instructions.
Total RNA was isolated from cell lines using Trizol (Invitrogen) and was converted to cDNA using an RNA Amplification kit (Ambion). The microarray hybridisation was performed using the Illumina Gene Expression BeadChip (Illumina) and data analysis was performed using GeneSpring software from Agilent Technologies.
The effects on gene expression were analysed using an Illumina Gene Expression BeadChip. […] To be inclusive for the subsequent analysis, all 1402 genes were considered to be potential PRC2 target genes.
To identify the PRC2 targets specifically repressed in breast cancer cells, the expression profiles of the 140 putative PRC2 target genes in MCF-7 cells and MCF10A cells were compared by gene clustering analysis (FIG. 4C).

Which results are given for `Nc1nccc2c1ncn2C1C=C(CO)C(O)C1O` (centres unmarked) [3-deazaneplanocin, 5-(4-amino-1H-imidazo[4,5-c]pyridin-1-yl)-3-(hydroxymethyl)-3-cyclopentene-1,2-diol]?
activation of the protease caspase 3 [1]: activation; cleavage of caspase 9, and poly(ADP-ribose) polymerase (PARP) [2]: easily detectable; cell death (MCF-7 cells [3]; 48 hours): 25%; cell death (MCF-7 cells [3]; 72 hours): 45%; apoptosis induction over various periods of time (MCF-7 cells [3]; MCF-7 cells, FACS): progressive and marked apoptosis; sensitivity to 3-deazaneplanocin-induced cell death (SK-BR-3 cells): highly susceptible; sensitivity to 3-deazaneplanocin-induced cell death (T47D cells): highly susceptible; sensitivity to 3-deazaneplanocin-induced cell death (MCF10A cells; MCF10A, time course to 120 hours): highly resistant; apoptosis induction (MCF10A cells; non-cancerous breast epithelial MCF10A cells, up to 96 hours): no obvious apoptosis; expression of the 47 PRC2 target genes repressed in MCF-7 relative to MCF10A (MCF-7 cells [4]): re-expression; number of genes upregulated ≧2-fold (MCF-7 cells [4]; 72 h): 750 genes

Reference: patent US8058258B2, “Methods for cancer therapy and stem cell modulation” (Agency for Science, Technology and Research, priority 2006, dated 2011)
